We go through eleven compounds from patent US8742113B2, “Furanone derivative” (SBI Biotech Co., Ltd., priority 2011, dated 2014).

The target of assay [1] is human Cdc7/human ASK complex protein (Homo sapiens (Human), UniProt O00311). Nature of the assay: Inhibitory effect on Cdc7 protein kinase (MSA assay kit). It counts as biochemical. The settings on record: human Cdc7/human ASK complex, FITC-labeled MCM2 peptide substrate, reaction 5 hours at room temperature; read-out: Test Example 1 Cdc7 IC50 value. The procedure: [Inhibitory Effect on Cdc7 Protein Kinase]
Measurement of kinase activity was carried out using an MSA assay kit (QuickScout Screening Assist™ Kit, Carna Biosciences, Inc.).
Assay buffer (20 mM HEPES, 0.01% Triton X-100™, 2 mM dithiothreitol, pH 7.5) was used to prepare a substrate mixture solution comprising 4 μM of a kinase-reaction substrate (FITC-labeled MCM2 peptide), 40 mM MgCl2, and 20 μM ATP.
The enzyme supplied in the kit (human Cdc7/human ASK complex protein) was diluted in the assay buffer so as to be at 7 nM, thereby preparing an enzyme solution.
The stock solution of each test compound was diluted in DMSO to prepare diluted DMSO solutions of 10 concentrations (0.00003 mM, 0.0001 mM, 0.0003 mM, 0.001 mM, 0.003 mM, 0.01 mM, 0.03 mM, 0.1 mM, 0.3 mM, 1 mM), each of which was further diluted 25 times in the assay buffer to make a drug solution (a solution containing 4% DMSO).
The kinase reaction was performed in wells of a polypropylene 384-well plate in which 5 μl of each of the drug solutions or of a solvent (assay buffer containing 4% DMSO), 5 μl of the substrate mixture solution, and 10 μl of the enzyme solution were mixed. The assay buffer, instead of the enzyme solution, was added to blank wells. After the reaction at room temperature for 5 hours, 60 μl of the termination buffer supplied in the kit was added to each well to stop the reaction. The percent inhibition of each reaction was determined using a LabChip EZ Reader II system (manufactured by Caliper Life Sciences), according to the protocol provided with the assay kit. In this case, the peak heights of the separated substrate and the phosphorylated substrate were represented as S and P, respectively, and the percent inhibition (%) by a tested compound was calculated according to the following formula: Percent inhibition(%)=(1−(C−A)/(B−A))×100 wherein A denotes P/(P+S) for a blank well, B denotes P/(P+S) for a solvent well, and C denotes P/(P+S) for a compound-added well.
The IC50 value of a tested compound was calculated by regression analysis of the percent inhibition values versus the (logarithmic) concentrations of the tested compound.

The subject of assay [2] is MCM2 phosphorylation in COLO205 cells. Briefly: Inhibitory effect on MCM2 phosphorylation using cells (Western blot). It counts as cell-based. The settings on record: Homo sapiens, COLO 205, 0.1 μM test compound, 24 hours, class by percent phosphorylation of MCM2, read-out: Test Example 2 Inhibitory effect on MCM2 phosphorylation. As for the experimental part: [Inhibitory Effect on Phosphorylation Using Cells]
COLO205 cells derived from human colon adenocarcinoma (RCB2127, RIKEN BRC) were cultured in 10 cm dishes using RPMI-1640 medium (SIGMA, R8758) supplemented with 10% FCS (Equitech-bio) and 5% penicillin/streptomycin (GIBCO, 15140). After the cells were cultured to a confluence of 70 to 90%, the medium was removed, and the cells were treated with trypsin (2 mL, TrypLE Express, GIBCO, 12604-021) and then harvested using a new medium.
COLO205 cells were seeded in 6-well plates (FALCON, 35046) to 2.5×10^5 cells (1 ml) per well and cultured overnight in a 5% CO2 incubator. A drug solution, which was prepared by adding 1.5 μl of a 0.1-mM stock solution in DMSO of a test compound to 500 μl of medium, was added to each well (to a final drug concentration of 0.1 μM), and then cultured for another 24 hours.
Cells were cultured for 24 hours in the presence of a test compound, harvested using a similar way as described above, washed with PBS, and then pelletized and stored at −80° C. The frozen cells were thawed, subsequently suspended immediately in 2×SDS-PAGE electrophoresis buffer (1×10^5 cells per 10 μl), and heated at 95° C. for 10 minutes, leading to the dissolution and denaturation of the proteins. The resulting sample solutions were subjected to SDS-PAGE using a 5-20% gradient acrylamide gel (e-PAGEL (5-20%), ATTO, E-T520L). After the electrophoresis was completed, the gel was immersed in tris-glycine buffer supplemented with 20% methanol, and the proteins in the gel were transferred onto a PVDF membrane (MILLIPORE, Immobilon-P, IPVH00010) using a semi-dry transfer apparatus (TRNS-BLOT SD SEMI-DRY […] CELL, BIO RAD).
The transferred PVDF membrane was blocked with 5% skim milk (Difco Skim Milk, BD, 232100), and then subjected to reaction with an anti-MCM2 goat antibody (N-19, Santa Cruz, sc-9839) or anti-phosphorylated MCM2 rabbit antibody (S53) (Bethyl, A300-756A) as a primary antibody and additionally with an anti-α tubulin mouse antibody (Clone DM 1A, SIGMA, 9026) as an internal control. Each band was detected by chemiluminescence using an HRP-labeled anti-goat IgG donkey antibody (Santa Cruz, sc2020), anti-rabbit IgG sheep antibody (Roche, 12015218001), or anti-mouse IgG donkey antibody (Jackson ImmunoResearch, 715-035-151) as a secondary antibody. The combinations of and the diluted concentrations of the primary and secondary antibodies were as indicated below.
The bands which were detected were normalized using the amount of endogenous α-tubulin as a reference, and the percent phosphorylation of MCM2 was calculated for each of the tested compounds. Their inhibitory effects on MCM2 phosphorylation were indicated by a triple asterisk (***) in the case where the percent phosphorylation of MCM2 was less than 20%, by a dual asterisk (**) in the case where the percent phosphorylation of MCM2 was not less than 20% and less than 50%, and by a single asterisk (*) in the case where the percent phosphorylation of MCM2 was not less than 50% and less than 70%.
(A western blot detects proteins with antibodies after separation by electrophoresis.)

Sequence of human Cdc7/human ASK complex protein (O00311 whole entry): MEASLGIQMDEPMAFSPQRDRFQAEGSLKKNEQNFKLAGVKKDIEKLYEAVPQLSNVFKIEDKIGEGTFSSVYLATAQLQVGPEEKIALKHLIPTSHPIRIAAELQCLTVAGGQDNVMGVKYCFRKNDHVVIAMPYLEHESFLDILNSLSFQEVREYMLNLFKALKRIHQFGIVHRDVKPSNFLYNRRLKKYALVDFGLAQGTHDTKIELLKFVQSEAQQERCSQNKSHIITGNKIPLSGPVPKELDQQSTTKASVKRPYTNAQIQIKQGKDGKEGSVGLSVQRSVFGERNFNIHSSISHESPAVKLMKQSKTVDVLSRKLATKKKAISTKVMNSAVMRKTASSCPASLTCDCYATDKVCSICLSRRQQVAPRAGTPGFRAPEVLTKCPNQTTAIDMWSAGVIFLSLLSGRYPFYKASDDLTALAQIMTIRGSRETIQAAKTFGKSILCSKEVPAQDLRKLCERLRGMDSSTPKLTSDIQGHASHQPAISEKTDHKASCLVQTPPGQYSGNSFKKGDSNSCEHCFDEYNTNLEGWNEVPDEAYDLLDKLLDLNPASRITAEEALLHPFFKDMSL
Sequence of human Cdc7/human ASK complex protein (Q9UBU7 whole entry partner): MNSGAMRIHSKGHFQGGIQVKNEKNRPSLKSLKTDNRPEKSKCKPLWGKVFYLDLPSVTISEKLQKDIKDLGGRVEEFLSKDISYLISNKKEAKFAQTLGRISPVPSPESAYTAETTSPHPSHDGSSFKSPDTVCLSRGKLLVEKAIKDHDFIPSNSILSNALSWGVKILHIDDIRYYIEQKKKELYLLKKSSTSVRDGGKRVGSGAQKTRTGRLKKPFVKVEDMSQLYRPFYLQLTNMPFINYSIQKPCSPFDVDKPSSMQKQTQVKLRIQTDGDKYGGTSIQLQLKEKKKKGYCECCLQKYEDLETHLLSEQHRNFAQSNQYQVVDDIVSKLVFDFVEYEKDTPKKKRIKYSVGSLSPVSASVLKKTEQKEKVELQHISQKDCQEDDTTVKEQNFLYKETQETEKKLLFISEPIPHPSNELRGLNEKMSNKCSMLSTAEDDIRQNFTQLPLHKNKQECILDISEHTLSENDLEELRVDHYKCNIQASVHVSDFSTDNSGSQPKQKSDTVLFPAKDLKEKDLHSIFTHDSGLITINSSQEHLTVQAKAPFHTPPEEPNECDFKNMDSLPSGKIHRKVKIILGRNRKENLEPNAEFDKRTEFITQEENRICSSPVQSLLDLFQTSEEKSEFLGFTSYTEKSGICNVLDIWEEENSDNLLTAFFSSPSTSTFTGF

Broadly, the IC50 is the point on the concentration scale where inhibition reaches its midpoint. On to `CCOC(=O)C1=C(Nc2ccccc2Cl)O/C(=C\c2c[nH]c3ncccc23)C1=O` [Example 15, Ethyl 5-[(1H-pyrrolo[2,3-b]pyridin-3-yl)methylene]-2-[(2-chlorophenyl)amino]-4-oxo-4,5-dihydrofuran-3-carboxylate], for which the concentration for half-maximal inhibition (IC50) in assay [1] stood at 2 nM. The inhibition at 0.1 µM in assay [2] fell in the range of 20 to 50%. For the compound `O=C(O)C1=C(Nc2ccccc2)O/C(=C\c2c[nH]c3ncccc23)C1=O` [Example 22, 5-[(1H-Pyrrolo[2,3-b]pyridin-3-yl)methylene]-4-oxo-2-(phenylamino)-4,5-dihydrofuran-3-carboxylic acid], the inhibition at 0.1 µM in assay [2] is 50 to 70%. Turning to `CCOC(=O)C1=C(N2CCCCCC2)O/C(=C\c2c[nH]c3ncccc23)C1=O` [Example 63], the inhibition at 0.1 µM in assay [2] was less than 20%.

For the compound `CCOC(=O)C1=C(Nc2ccc3cn[nH]c3c2)O/C(=C\c2c[nH]c3ncccc23)C1=O` [Example 68, Ethyl 5-[(1H-pyrrolo[2,3-b]pyridin-3-yl)methylene]-2-[(6-indazolyl)amino]-4-oxo-4,5-dihydrofuran-3-carboxylate], the IC50 in assay [1] stood at 4 nM. Also, the inhibition at 0.1 µM in assay [2] is less than 20%. Take `CCOC(=O)C1=C(N2CCC(C)CC2)O/C(=C\c2c[nH]c3ncccc23)C1=O` [Example 78, Ethyl 5-[(1H-pyrrolo[2,3-b]pyridin-3-yl)methylene]-2-(4-methylpiperidino)-4-oxo-4,5-dihydrofuran-3-carboxylate]: in assay [1], the IC50 is 11 nM. Besides, the inhibition at 0.1 µM in assay [2] is less than 20%. `CCOC(=O)C1=C(Nc2ccc(OCCO)cc2F)OC(=Cc2c[nH]c3ncccc23)C1=O` [Example 81, Ethyl 5-[(1H-pyrrolo[2,3-b]pyridin-3-yl)methylene]-2-{[2-fluoro-4-(2-hydroxyethoxy)phenyl]amino}-4-oxo-4,5-dihydrofuran-3-carboxylate]: in assay [1], the IC50 turned out to be 5 nM. Also, the inhibition at 0.1 µM in assay [2] was less than 20%. The like results for `O=C(OCCCO)C1=C(Nc2ccc(F)cc2)O/C(=C\c2c[nH]c3ncccc23)C1=O` [Example 89, 3-Hydroxypropyl 5-[(1H-pyrrolo[2,3-b]pyridin-3-yl)methylene]-2-[(4-fluorophenyl)amino]-4-oxo-4,5-dihydrofuran-3-carboxylate] were, in that order, 3 nM and less than 20%. Taken in the same sequence, the figures for `CN(C)CCOC(=O)C1=C(Nc2ccc(F)cc2F)O/C(=C\c2c[nH]c3ncccc23)C1=O` [Example 91, 2-(Dimethylamino)ethyl 5-[(1H-pyrrolo[2,3-b]pyridin-3-yl)methylene]-2-[(2,4-difluorophenyl)amino]-4-oxo-4,5-dihydrofuran-3-carboxylate] were 4 nM and less than 20%. In the case of `CCOC(=O)C1=C(N2CCc3ccccc3C2)O/C(=C\c2c[nH]c3ncccc23)C1=O` [Example 102, Ethyl 5-[(1H-pyrrolo[2,3-b]pyridin-3-yl)methylene]-2-(3,4-dihydroisoquinolin-2(1H)-yl)-4-oxo-4,5-dihydrofuran-3-carboxylate], in assay [1], the IC50 came to 4 nM. For the same compound, the inhibition at 0.1 µM in assay [2] was less than 20%. On to `CCOC(=O)C1=C(Nc2ccc(NCCO)cc2C)O/C(=C\c2c[nH]c3ncccc23)C1=O` [Example 126, Ethyl 5-[(1H-pyrrolo[2,3-b]pyridin-3-yl)methylene]-2-({4-[(2-hydroxyethyl)amino]-2-methylphenyl}amino)-4-oxo-4,5-dihydrofuran-3-carboxylate], for which, in assay [1], the IC50 was determined as 3 nM. In addition, the inhibition at 0.1 µM in assay [2] was less than 20%.

Regarding `CCOC(=O)C1=C(Nc2ccc(CN(C)C)cc2C)O/C(=C\c2c[nH]c3ncccc23)C1=O` [Example 129, Ethyl 5-[(1H-pyrrolo[2,3-b]pyridin-3-yl)methylene]-2-({4-[(dimethylamino)methyl]-2-methylphenyl}amino)-4-oxo-4,5-dihydrofuran-3-carboxylate], the half-inhibitory concentration (IC50) in assay [1] came out at 9 nM. Besides, in assay [2], the inhibition at 0.1 µM was less than 20%.
